Source: US20200377561A1, “ANTIMICROBIAL PEPTIDES AND METHODS OF TREATING GRAM-NEGATIVE PATHOGEN INFECTIONS: POLAR AND NON-POLAR FACE ANALOGS” (THE REGENTS OF THE UNIVERSITY OF COLORADO, a body corporate, priority 2017, published 2020)
Peptide text beside a SMILES is read from it.

Key:
Human erythrocytes = test: Haemolysis assay using human blood; format: cell-based; details: red cells of human, 1 h
Experimental: To determine the extent of haemolytic activity (the ability to lyse red blood cells) in test peptides, a haemolysis assay was conducted using human blood (BioIVT, West Sussex, UK). Human erythrocytes were exposed to a single fixed concentration or a range of concentrations as to determine the % haemolysis (fixed concentration) or the concentration at which 50% haemolysis occurred (HC50), respectively. Prior to the assay, whole human blood was repeatedly washed in phosphate buffered saline (PBS) under cooled conditions to remove the buffy coat, plasma and cell debris. Washed erythrocytes were diluted as to achieve 1×10^8 cells/mL in PBS. Prepared human erythrocyte samples were combined with peptide at a single fixed concentration of 128 μg/mL, or a range of concentrations (two-fold dilution series) from 1000-31.25 μg/mL. Positive and negative controls containing 2% (v/v) Triton X-100 and PBS alone, respectively, were also prepared. Samples were incubated at 37° C. for 1 hour and then centrifuged to collect intact erythrocytes. Haemoglobin release was determined by recording the optical density of the supernatant at 540 nm. Optical density values were transformed to a percentage of the positive control. Results were recorded as a percentage haemolysis at 128 μg/mL, or by plotting the percentage haemolysis versus concentration and extrapolating the HC50 using linear regression analysis (Table 2 above)
The therapeutic index is a widely-accepted parameter to represent the specificity of antimicrobial peptides for prokaryotic versus eukaryotic cells. It is calculated by the ratio of hemolytic activity and antimicrobial activity (MIC) (Table 2 above); thus, larger values of therapeutic index indicate greater specificity for prokaryotic cells. With the peptides used in this study the inventors used the HC50/MIC ratio value to calculate the therapeutic index.

[1] = Peptide hydrophobicity by RP-HPLC retention; format: physicochemical; details: for tR (relative hydrophobicity by RP-HPLC): Zorbax SB-300 C8, 0.25% B/min from 10% B, 0.3 ml/min, 30° C.; for ΔtR (Lys): retention time difference to the Lys13/Lys16 parent peptide
Description: Retention behavior in RP-HPLC is an excellent method to represent overall peptide hydrophobicity. Retention times of peptides are highly sensitive to the conformational status of the peptides upon interaction with the hydrophobic environment of the column matrix^17,26. The non-polar faces of amphipathic alpha-helical and amphipathic cyclic beta-sheet peptides represent a preferred binding domain for interaction with the hydrophobic matrix of the reversed-phase column^27. In this study, the observed peptide hydrophobicity was determined by RP-HPLC retention time as described below and are relative hydrophobicities because they are dependent on the TFA concentration and organic solvent in the mobile phase, gradient rate, temperature, flow rate and the column used. Analytical Purification by Reversed-phase Chromatography: Analytical RP-HPLC: Column: Zorbax SB-300 C8 (150×2.1 mm ID; 5-μm particle size; 300 Å pore size). Conditions: linear AB gradient (0.25% B/min from 10% B) at a flow-rate of 0.3 ml/min, where Eluent A is 0.2% aq. TFA and Eluent B is 0.18% TFA in acetonitrile; 30° C.

[2] = system: Acinetobacter baumannii NCTC 13420; format: cell-based; details: NCTC 13420
Experimental: (§1) Bacterial strains were acquired from the American Type Culture Collection (ATCC, Virginia, USA) and the National Collection of Type Cultures (NCTC, Public Health England, Salisbury, UK). Minimum Inhibitory Concentration (MIC) of peptides versus gram-negative strains-Acinetobacter baumannii NCTC 13420, and Pseudomonas aeruginosa ATCC 27853 and gram-positive strain Staphylococcus aureus ATCC 29213, were determined by broth microdilution as per the guidelines of the Clinical and Laboratory Standards Institute (“Methods for Dilution Antimicrobial Susceptibility Tests for Bacteria That Grow Aerobically”; Approved Standard-Ninth Edition. CLSI document M07-A9, 2012). Peptides were dissolved in sterile distilled water, which was also used as the drug-free vehicle control when determining peptide MICs. Prior to use in the MIC protocol, bacterial strains were grown on Mueller Hinton agar at 37° C. in an ambient atmosphere. […] A fixed inoculum of the test microorganism (5×10^5 cells/mL) is also added to the plate. The MIC is determined as the lowest concentration of compound that inhibits visible bacterial growth following incubation at 37° C. for 16-20 hours. A difference in MIC of two-fold between experimental replicates is considered to be within the normal variability of this protocol.

[3] = system: Pseudomonas aeruginosa ATCC 27853; format: cell-based; details: ATCC 27853
Experimental: as §1

CC(=O)N[C@H](CCCCN)C(=O)N[C@H](CC(C)C)C(=O)N[C@H](CCCCN)C(=O)N[C@H](CCCCN)C(=O)N[C@H](CC(C)C)C(=O)N[C@H](CC(C)C)C(=O)N[C@H](CCCCN)C(=O)N[C@H](CCCCN)C(=O)N[C@H](CC(C)C)C(=O)N[C@H](CO)C(=O)N[C@H](CO)C(=O)N[C@H](C)C(=O)N[C@H](CCN)C(=O)N[C@H](CO)C(=O)N[C@H](CO)C(=O)N[C@H](CCN)C(=O)N[C@H](CC(C)C)C(=O)N[C@H](CO)C(=O)N[C@@H](C(=O)N[C@H](CC(C)C)C(=O)N[C@H](CC(C)C)C(=O)N[C@H](CCCCN)C(=O)N[C@H](CCCCN)C(=O)N[C@H](CC(C)C)C(=O)N[C@H](CCCCN)C(=O)N[C@H](CCCCN)C(N)=O)[C@H](C)O [compound 15] (HELM PEPTIDE1{[ac].[dK].[dL].[dK].[dK].[dL].[dL].[dK].[dK].[dL].[dS].[dS].[dA].[NCC[C@@H](N[*:1])C(=O)[*:2]].[dS].[dS].[NCC[C@@H](N[*:1])C(=O)[*:2]].[dL].[dS].[dT].[dL].[dL].[dK].[dK].[dL].[dK].[dK].[am]}$$$$V2.0)
Haemolysis HC50 (Human erythrocytes): >1000 µg/mL
tR (relative hydrophobicity by RP-HPLC) [1]: 83.40 min
ΔtR (Lys) [1]: 3.97 min
Antimicrobial Activity MIC A. baumannii NCTC13420 [2]: 2 µg/mL
P. aeruginosa ATCC27853 MIC [3]: 4 µg/mL

CC(=O)N[C@H](CCCCN)C(=O)N[C@H](CC(C)C)C(=O)N[C@H](CCCCN)C(=O)N[C@H](CCCCN)C(=O)N[C@H](CC(C)C)C(=O)N[C@H](CC(C)C)C(=O)N[C@H](CCCCN)C(=O)N[C@H](CCCCN)C(=O)N[C@H](CC(C)C)C(=O)N[C@H](CO)C(=O)N[C@H](CO)C(=O)N[C@H](C)C(=O)N[C@H](CN)C(=O)N[C@H](CO)C(=O)N[C@H](CO)C(=O)N[C@H](CN)C(=O)N[C@H](CC(C)C)C(=O)N[C@H](CO)C(=O)N[C@@H](C(=O)N[C@H](CC(C)C)C(=O)N[C@H](CC(C)C)C(=O)N[C@H](CCCCN)C(=O)N[C@H](CCCCN)C(=O)N[C@H](CC(C)C)C(=O)N[C@H](CCCCN)C(=O)N[C@H](CCCCN)C(N)=O)[C@H](C)O [compound 16] (HELM PEPTIDE1{[ac].[dK].[dL].[dK].[dK].[dL].[dL].[dK].[dK].[dL].[dS].[dS].[dA].[NC[C@@H](N[*:1])C(=O)[*:2]].[dS].[dS].[NC[C@@H](N[*:1])C(=O)[*:2]].[dL].[dS].[dT].[dL].[dL].[dK].[dK].[dL].[dK].[dK].[am]}$$$$V2.0)
Haemolysis HC50 (Human erythrocytes): >1000 µg/mL
tR (relative hydrophobicity by RP-HPLC) [1]: 84.06 min
ΔtR (Lys) [1]: 3.31 min
Antimicrobial Activity MIC A. baumannii NCTC13420 [2]: 2 µg/mL
P. aeruginosa ATCC27853 MIC [3]: 4 µg/mL

CC(=O)N[C@H](C)C(=O)N[C@H](CC(C)C)C(=O)N[C@H](CCCCN)C(=O)N[C@H](CCCCN)C(=O)N[C@H](CC(C)C)C(=O)N[C@H](CC(C)C)C(=O)N[C@H](CCCCN)C(=O)N[C@H](CCCCN)C(=O)N[C@H](CC(C)C)C(=O)N[C@H](CO)C(=O)N[C@H](CO)C(=O)N[C@H](C)C(=O)N[C@H](CCCN)C(=O)N[C@H](CO)C(=O)N[C@H](CO)C(=O)N[C@H](CCCN)C(=O)N[C@H](CC(C)C)C(=O)N[C@H](CO)C(=O)N[C@@H](C(=O)N[C@H](CC(C)C)C(=O)N[C@H](CC(C)C)C(=O)N[C@H](CCCCN)C(=O)N[C@H](CCCCN)C(=O)N[C@H](CC(C)C)C(=O)N[C@H](CCCCN)C(=O)N[C@H](CCCCN)C(N)=O)[C@H](C)O [compound 19] (HELM PEPTIDE1{[ac].[dA].[dL].[dK].[dK].[dL].[dL].[dK].[dK].[dL].[dS].[dS].[dA].[NCCC[C@@H](N[*:1])C(=O)[*:2]].[dS].[dS].[NCCC[C@@H](N[*:1])C(=O)[*:2]].[dL].[dS].[dT].[dL].[dL].[dK].[dK].[dL].[dK].[dK].[am]}$$$$V2.0)
Haemolysis HC50 (Human erythrocytes): >1000 µg/mL
tR (relative hydrophobicity by RP-HPLC) [1]: 91.57 min
ΔtR (Lys) [1]: 2.94 min
Antimicrobial Activity MIC A. baumannii NCTC13420 [2]: 2 µg/mL
P. aeruginosa ATCC27853 MIC [3]: 4 µg/mL

CC(=O)N[C@H](C)C(=O)N[C@H](CC(C)C)C(=O)N[C@H](CCCCN)C(=O)N[C@H](CCCCN)C(=O)N[C@H](CC(C)C)C(=O)N[C@H](CC(C)C)C(=O)N[C@H](CCCCN)C(=O)N[C@H](CCCCN)C(=O)N[C@H](CC(C)C)C(=O)N[C@H](CO)C(=O)N[C@H](CO)C(=O)N[C@H](C)C(=O)N[C@H](CCN)C(=O)N[C@H](CO)C(=O)N[C@H](CO)C(=O)N[C@H](CCN)C(=O)N[C@H](CC(C)C)C(=O)N[C@H](CO)C(=O)N[C@@H](C(=O)N[C@H](CC(C)C)C(=O)N[C@H](CC(C)C)C(=O)N[C@H](CCCCN)C(=O)N[C@H](CCCCN)C(=O)N[C@H](CC(C)C)C(=O)N[C@H](CCCCN)C(=O)N[C@H](CCCCN)C(N)=O)[C@H](C)O [compound 20] (HELM PEPTIDE1{[ac].[dA].[dL].[dK].[dK].[dL].[dL].[dK].[dK].[dL].[dS].[dS].[dA].[NCC[C@@H](N[*:1])C(=O)[*:2]].[dS].[dS].[NCC[C@@H](N[*:1])C(=O)[*:2]].[dL].[dS].[dT].[dL].[dL].[dK].[dK].[dL].[dK].[dK].[am]}$$$$V2.0)
Haemolysis HC50 (Human erythrocytes): >1000 µg/mL
tR (relative hydrophobicity by RP-HPLC) [1]: 91.57 min
ΔtR (Lys) [1]: 2.94 min
Antimicrobial Activity MIC A. baumannii NCTC13420 [2]: 2 µg/mL
P. aeruginosa ATCC27853 MIC [3]: 4 µg/mL

CC(=O)N[C@H](C)C(=O)N[C@H](CC(C)C)C(=O)N[C@H](CCCCN)C(=O)N[C@H](CCCCN)C(=O)N[C@H](CC(C)C)C(=O)N[C@H](CC(C)C)C(=O)N[C@H](CCCCN)C(=O)N[C@H](CCCCN)C(=O)N[C@H](CC(C)C)C(=O)N[C@H](CO)C(=O)N[C@H](CO)C(=O)N[C@H](C)C(=O)N[C@H](CN)C(=O)N[C@H](CO)C(=O)N[C@H](CO)C(=O)N[C@H](CN)C(=O)N[C@H](CC(C)C)C(=O)N[C@H](CO)C(=O)N[C@@H](C(=O)N[C@H](CC(C)C)C(=O)N[C@H](CC(C)C)C(=O)N[C@H](CCCCN)C(=O)N[C@H](CCCCN)C(=O)N[C@H](CC(C)C)C(=O)N[C@H](CCCCN)C(=O)N[C@H](CCCCN)C(N)=O)[C@H](C)O [compound 21] (HELM PEPTIDE1{[ac].[dA].[dL].[dK].[dK].[dL].[dL].[dK].[dK].[dL].[dS].[dS].[dA].[NC[C@@H](N[*:1])C(=O)[*:2]].[dS].[dS].[NC[C@@H](N[*:1])C(=O)[*:2]].[dL].[dS].[dT].[dL].[dL].[dK].[dK].[dL].[dK].[dK].[am]}$$$$V2.0)
Haemolysis HC50 (Human erythrocytes): >1000 µg/mL
tR (relative hydrophobicity by RP-HPLC) [1]: 94.92 min
ΔtR (Lys) [1]: 0.41 min
Antimicrobial Activity MIC A. baumannii NCTC13420 [2]: 2 µg/mL
P. aeruginosa ATCC27853 MIC [3]: 4 µg/mL
